Where two headings read alike, the source gives them in different places.
Legend:
[1] = system: peripheral nasal chemosensory receptors; conditions: cited from earlier work; for Cross adaptation / fatigue of the receptors toward androstadienone: repeated stimulation, local electrical response of human vomeronasal epithelium, Monti-Bloch et al. 1994
[2] = system: healthy volunteers (men and women); assay: Local and general tolerability and safety of airborne nasal delivery; format: in vivo, human; conditions: 12 ng intranasal; for Adverse effects reported: during the intervention and 24 hours after
Experimental: The physiologic and psychological effects of pregna-5,20-dien-3β-ol were investigated in men and women. Additionally, the local and general tolerability and safety of pregna-5,20-dien-3β-ol delivered airborne to the nasal passages were also evaluated.
After completion of physiologic recordings and the modified DABS-70 (#3), all surface electrodes were removed and the subject went through an exit interview lasting 5 minutes. At this time the investigator recorded again the arterial blood pressure and also inquired the subject about his or her state of feelings, and also any possible adverse effect appearing during the study session.

[3] = system: healthy volunteers (men and women); assay: Behavioral effects by modified DABS-70 inventory after nasal exposure; format: in vivo, human; conditions: 12 ng nasal
[4] = system: healthy volunteers (men and women); assay: as above; format: in vivo, human; conditions: for Sensuality cluster mean: modified DABS-70, items scored 0-4
Experimental: We assessed the resulting physiological responses and behavioral changes induced by nasal exposure to 12 ng pregna-5,20-dien-3β-ol in 76 volunteers (38 women and 38 men), age 18 to 46 (Table 1) using a placebo-controlled, single blind and crossover study design. The items of the modified DABS-70 were rearranged during consecutive administrations, in order to minimize the effect of learning.
Forty of the items on the standard DABS-70 questionnaire are descriptions of “ways people feel”, and subjects indicate whether they had experienced each emotion “never”, “rarely”, “sometimes”, “frequently”, or “always” in the last two weeks. The remaining 30 items on the standard DABS-70 questionnaire are personality characteristics for which subjects describe themselves as “not at all,” “a little bit,” “moderately” “quite a bit” or “extremely,” depending on the degree to which they feel each trait is typical of them. In the modified DABS-70 questionnaire, sixty-seven items were selected and assessed and during the testing the questions were randomized to minimize or prevent “learning” the questionnaire by the volunteers. This psychometric instrument was chosen because several items were of a sexual connotation and could be used to quantify the effects of pregna-5,20-dien-3β-ol on sexuality.
Subjects who participated were asked, as a baseline, to fill out the modified DABS-70 as to their personality characteristics and feelings as they currently perceived them. Each item was quantified ranging from an individual's perception of “not at all” (0) to “extremely” (4). At the beginning of the questionnaire was a statement that they might feel differently after the blind and randomized exposure to the contents of a perfumery grade smelling strip positioned on the upper lip. The baseline electrophysiological measurements were performed after the questionnaire was completed, and again 5 minutes before the second randomized exposure (FIG. 3). Twenty minutes after the first randomized exposure to control or pregna-5,20-dien-3β-ol and again 20 minutes after the second randomized exposure to control or pregna-5,20-dien-3β-ol (in both instances, 5 minutes after the second and fourth set of electrophysiological measurements), the modified DABS-70 was administered again (FIG. 4). This task took approximately 10 minutes to complete, and the order of the questions of each consecutive modified DABS-70 administered was rearranged in order to minimize the effect of learning during prior administration of the test.
Active substance (pregna-5,20-dien-3β-ol) and control were freshly prepared on 0.7 cm×10 cm perfumery grade smelling strips 24 hours before the experiment. A perfumery grade smelling strip was positioned on the upper lip of the subject for delivery of control or active substance to the nasal passages for a period of 20 minutes. Each breath carried vapors of pregna-5,20-dien-3β-ol or control (air) from the paper strip to the nasal passages.
Perfumery grade smelling strips containing either pregna-5,20-dien-3β-ol or control were prepared as follows: 100 μl of stock solution containing 100 mg pregna-5,20-dien-3β-ol/10 mL ethanol (95%) was added to a clean paper strip. Ethanol was allowed to evaporate overnight in a clean fume hood, and 1 mg of dry crystals of pregna-5,20-dien-3β-ol remained embedded in the dried perfumery grade smelling strip. Control was a perfumery grade smelling strip prepared following the same procedure but the solution was devoid of active substance.
The following assumptions were used to calculate the quantity of pregna-5,20-dien-3β-ol delivered to the nasal passages during a study session: a) the quantity of pregna-5,20-dien-3β-ol arriving to the nasal passages with each breath is ≈40 pg (determined as described below); b) the average respiratory rate at rest in men and women is ≈15 breaths per minute; and c) the subject was exposed to pregna-5,20-dien-3β-ol for 20 min during the entire study session. […]

[5] = target: T1, human testicular 17α Hydroxylase/C17-20-Lyase (Homo sapiens, UniProt P05093); conditions: Li et al. 1996; Brodie et al. U.S. Pat. No. 5,994,334; cited from earlier work
T1 sequence (P05093 1-508): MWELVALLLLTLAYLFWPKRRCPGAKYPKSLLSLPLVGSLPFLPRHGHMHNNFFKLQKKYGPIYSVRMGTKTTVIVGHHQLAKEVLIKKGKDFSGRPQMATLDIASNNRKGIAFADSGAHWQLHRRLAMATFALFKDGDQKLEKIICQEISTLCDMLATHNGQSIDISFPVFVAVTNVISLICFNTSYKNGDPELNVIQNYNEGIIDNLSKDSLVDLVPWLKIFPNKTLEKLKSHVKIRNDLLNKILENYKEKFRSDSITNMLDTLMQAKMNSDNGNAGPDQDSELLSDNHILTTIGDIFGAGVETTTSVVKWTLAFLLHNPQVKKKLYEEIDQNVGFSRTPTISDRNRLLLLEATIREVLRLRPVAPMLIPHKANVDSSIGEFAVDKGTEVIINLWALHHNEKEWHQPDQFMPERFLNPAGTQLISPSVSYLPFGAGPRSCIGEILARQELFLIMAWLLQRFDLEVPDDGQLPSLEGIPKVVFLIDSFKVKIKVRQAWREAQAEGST

[6] = MALE, 12 ng nasal, modified DABS-70 item
[7] = men (N = 38), 12 ng nasal over 20 min, modified DABS-70
[8] = men and women, regardless of gender, 12 ng nasal, p<0.0001
[9] = women (N = 38), 12 ng nasal over 20 min, modified DABS-70

## C=C[C@H]1CC[C@H]2[C@@H]3CC=C4C[C@@H](O)CC[C@]4(C)[C@H]3CC[C@]12C [pregna-5,20-dien-3β-ol, Pregna-5,20-dien-3β-ol]
[1]; androstadienone 27 picograms, muricin aglycone 30 picograms, adapted from Monti-Bloch et al. (1994)
  Depolarization of the electrogram of peripheral nasal chemosensory receptors: robust depolarization
[1]; listed as Muricin aglycone
  Cross adaptation / fatigue of the receptors toward androstadienone: elicit cross adaptation
[1]; listed as muricin aglycone
  Cross adaptation / fatigue of the receptors toward androstadienone: produces fatigue of the receptors
[2]
  Arterial blood pressure, beginning of session vs exit interview: absence of significant arterial blood pressure difference
  Adverse effects reported: no adverse effects reported
[2]; airborne, all volunteers of both gender groups
  Tolerability: well tolerated
[2]; listed as Pregna-5,20-dien-3β-ol
  Adverse effects reported: no reports of local or general adverse side effects
[2]; end of the recording session
  Local nasal discomfort / clinical examination of the nasal passages: did not reveal local lesions and/or inflammation
[3]; listed as muricin aglycone
  Negativity cluster, response versus control: no effect on negativity
[3]; regardless of gender, p<0.00001, listed as muricin aglycone
  Social Warmth and Friendliness cluster, overall response versus control: enhanced levels
[4]; FEMALE, 12 ng nasal, modified DABS-70 item
  ENERGETIC item, ACTIVE MEAN: 2.07
[4]; [6]
  LOVING item, ACTIVE MEAN: 2.42
  WARM item, ACTIVE MEAN: 2.25
[4]; [7]
  Arousal/Excitement cluster mean: 2.006
  Negativity cluster mean: 0.246
  Personal Well-Being cluster mean: 2.607
  Social Warmth/Friendliness cluster mean: 2.147
[4]; men (N = 38), 12 ng nasal over 20 min
  Sensuality cluster mean: 1.286
[4]; men and women, regardless of gender, 12 ng nasal, p<0.00001
  Social Warmth and Friendliness cluster, overall response versus control: active>control
[4]; [8]
  Arousal and Excitement cluster, overall response versus control: active>control
  Sensuality cluster, overall response versus control: active>control
[4]; men and women, 12 ng nasal
  Negativity cluster, response versus control: not associated with being exposed to active versus control treatment
[4]; [9]
  Arousal/Excitement cluster mean: 1.857
  Negativity cluster mean: 0.238
  Social Warmth/Friendliness cluster mean: 1.92
[4]; women (N = 38), 12 ng nasal over 20 min
  Sensuality cluster mean: 1.446
[5]
  Inhibition of human testicular 17α Hydroxylase/C17-20-Lyase: little activity

From patent publication US20140045805A1, “Fragrance Compositions and Other Compositions Which Contain Naturally Occurring Substances Found in Corals” (priority 2007, published 2014)
